Assay results: patent US20250257069A1, “JAK INHIBITOR ANALOGS, FORMULATIONS, AND USES THEREOF” (THE REGENTS OF THE UNIVERSITY OF MICHIGAN, priority 2022, published 2025)
Read-outs that look alike come from different tables or passages of the source. One block for each compound: values may come before it.

Columns and labels:
[1] = target: JAK1 (Homo sapiens (Human), UniProt P23458); assay: Kinase-Glo Max JAK1 kinase assay (BPS Bioscience kit); type: biochemical; conditions: purified enzyme, 0.01-10,000 nM
Sequence of JAK1 (P23458 whole entry): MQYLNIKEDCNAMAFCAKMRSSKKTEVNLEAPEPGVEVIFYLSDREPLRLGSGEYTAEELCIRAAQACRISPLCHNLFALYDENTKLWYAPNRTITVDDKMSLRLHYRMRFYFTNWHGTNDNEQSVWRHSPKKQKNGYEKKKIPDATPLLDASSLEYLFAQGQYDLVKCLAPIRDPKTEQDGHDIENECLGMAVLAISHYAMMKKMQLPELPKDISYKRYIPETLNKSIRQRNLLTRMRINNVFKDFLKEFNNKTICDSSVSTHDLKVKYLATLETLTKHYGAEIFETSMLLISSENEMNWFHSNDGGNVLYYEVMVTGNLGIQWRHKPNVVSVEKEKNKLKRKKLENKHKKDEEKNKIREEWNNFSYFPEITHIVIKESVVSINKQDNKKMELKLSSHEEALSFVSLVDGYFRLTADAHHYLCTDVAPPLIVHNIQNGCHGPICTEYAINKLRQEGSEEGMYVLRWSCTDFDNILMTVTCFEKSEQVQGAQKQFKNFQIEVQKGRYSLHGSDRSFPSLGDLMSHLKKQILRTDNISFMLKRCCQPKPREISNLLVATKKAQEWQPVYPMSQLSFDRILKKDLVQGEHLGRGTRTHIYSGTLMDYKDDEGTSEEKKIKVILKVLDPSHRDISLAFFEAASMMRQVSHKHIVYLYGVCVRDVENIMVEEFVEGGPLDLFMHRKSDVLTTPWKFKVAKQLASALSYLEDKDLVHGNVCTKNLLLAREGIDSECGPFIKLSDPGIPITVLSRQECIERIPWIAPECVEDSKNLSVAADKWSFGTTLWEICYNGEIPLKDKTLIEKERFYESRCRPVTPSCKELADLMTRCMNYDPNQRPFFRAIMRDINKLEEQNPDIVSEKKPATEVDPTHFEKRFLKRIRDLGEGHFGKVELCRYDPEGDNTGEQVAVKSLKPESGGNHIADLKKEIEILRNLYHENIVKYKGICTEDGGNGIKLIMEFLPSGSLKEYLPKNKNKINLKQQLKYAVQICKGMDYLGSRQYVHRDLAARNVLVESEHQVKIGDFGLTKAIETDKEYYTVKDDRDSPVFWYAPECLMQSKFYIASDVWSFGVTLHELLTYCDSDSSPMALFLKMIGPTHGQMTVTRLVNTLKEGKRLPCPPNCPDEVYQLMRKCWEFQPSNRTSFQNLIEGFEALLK
Description: (§1) In vitro activity to inhibit JAK enzymes: JAK1, JAK2, JAK3, TYK2 assay kits were obtained from BPS Bioscience (San Diego, CA, USA). The assays were conducted according to manufacturer's protocols in 96-well microplates. Briefly, master mixtures (25 μL per well) were prepared for JAK1 and TYK2 assays (6 μL 5× kinase assay buffer+1 μL ATP (500 μM)+5 μL×10 IRS1-tide+13 μL distilled water) or for JAK2 and JAK3 assays (6 μl 5× kinase assay buffer+1 μl ATP (500 μM)+1 μl PTK substrate Poly(Glu:Tyr 4:1) (10 mg/mL)+17 μL distilled water), respectively. […] The reaction mixtures were incubated at 30° C. for 40 minutes. Finally, 50 μL of Kinase-Glo Max reagent (Promega, Madison, WL USA) was added to each well and the reactions were performed in darkness for 15 minutes at room temperature. The luminescence of the reaction mixture was read on a Synergy 2 microplate reader (Biotek).

[2] = target: JAK2 (Homo sapiens (Human), UniProt O60674); assay: Kinase-Glo Max JAK2 kinase assay (BPS Bioscience kit); type: biochemical; conditions: purified enzyme, 0.01-10,000 nM
Sequence of JAK2 (O60674 whole entry): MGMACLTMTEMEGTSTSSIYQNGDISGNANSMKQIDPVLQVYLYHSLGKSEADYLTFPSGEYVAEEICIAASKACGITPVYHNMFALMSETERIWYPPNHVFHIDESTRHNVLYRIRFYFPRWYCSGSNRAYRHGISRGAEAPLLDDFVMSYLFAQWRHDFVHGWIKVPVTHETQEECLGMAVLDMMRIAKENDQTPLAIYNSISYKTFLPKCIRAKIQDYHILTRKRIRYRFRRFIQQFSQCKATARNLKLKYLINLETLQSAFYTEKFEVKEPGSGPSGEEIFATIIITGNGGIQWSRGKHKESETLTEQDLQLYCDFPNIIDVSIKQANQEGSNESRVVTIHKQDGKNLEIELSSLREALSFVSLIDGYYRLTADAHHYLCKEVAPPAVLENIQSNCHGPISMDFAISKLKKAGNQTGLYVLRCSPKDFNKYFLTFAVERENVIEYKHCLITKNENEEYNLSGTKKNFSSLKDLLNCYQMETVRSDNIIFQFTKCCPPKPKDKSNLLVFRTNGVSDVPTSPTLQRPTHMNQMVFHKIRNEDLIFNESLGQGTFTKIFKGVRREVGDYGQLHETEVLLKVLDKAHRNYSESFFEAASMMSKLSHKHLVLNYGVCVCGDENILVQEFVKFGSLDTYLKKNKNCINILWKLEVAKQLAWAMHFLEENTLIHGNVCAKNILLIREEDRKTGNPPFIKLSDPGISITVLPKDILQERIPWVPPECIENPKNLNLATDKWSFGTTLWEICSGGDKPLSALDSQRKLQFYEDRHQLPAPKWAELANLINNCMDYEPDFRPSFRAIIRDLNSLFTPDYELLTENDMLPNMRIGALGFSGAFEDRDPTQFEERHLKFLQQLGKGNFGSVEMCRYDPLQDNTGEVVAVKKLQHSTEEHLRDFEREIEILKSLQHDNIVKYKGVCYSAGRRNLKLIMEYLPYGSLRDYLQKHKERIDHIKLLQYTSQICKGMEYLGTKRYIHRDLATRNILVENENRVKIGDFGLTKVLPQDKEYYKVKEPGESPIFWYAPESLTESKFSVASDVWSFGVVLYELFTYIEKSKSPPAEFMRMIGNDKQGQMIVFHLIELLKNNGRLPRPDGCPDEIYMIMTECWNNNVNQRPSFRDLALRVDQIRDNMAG

[3] = target: JAK3 (Homo sapiens (Human), UniProt P52333); assay: Kinase-Glo Max JAK3 kinase assay (BPS Bioscience kit); type: biochemical; conditions: purified enzyme, 0.01-10,000 nM
Sequence of JAK3 (P52333 whole entry): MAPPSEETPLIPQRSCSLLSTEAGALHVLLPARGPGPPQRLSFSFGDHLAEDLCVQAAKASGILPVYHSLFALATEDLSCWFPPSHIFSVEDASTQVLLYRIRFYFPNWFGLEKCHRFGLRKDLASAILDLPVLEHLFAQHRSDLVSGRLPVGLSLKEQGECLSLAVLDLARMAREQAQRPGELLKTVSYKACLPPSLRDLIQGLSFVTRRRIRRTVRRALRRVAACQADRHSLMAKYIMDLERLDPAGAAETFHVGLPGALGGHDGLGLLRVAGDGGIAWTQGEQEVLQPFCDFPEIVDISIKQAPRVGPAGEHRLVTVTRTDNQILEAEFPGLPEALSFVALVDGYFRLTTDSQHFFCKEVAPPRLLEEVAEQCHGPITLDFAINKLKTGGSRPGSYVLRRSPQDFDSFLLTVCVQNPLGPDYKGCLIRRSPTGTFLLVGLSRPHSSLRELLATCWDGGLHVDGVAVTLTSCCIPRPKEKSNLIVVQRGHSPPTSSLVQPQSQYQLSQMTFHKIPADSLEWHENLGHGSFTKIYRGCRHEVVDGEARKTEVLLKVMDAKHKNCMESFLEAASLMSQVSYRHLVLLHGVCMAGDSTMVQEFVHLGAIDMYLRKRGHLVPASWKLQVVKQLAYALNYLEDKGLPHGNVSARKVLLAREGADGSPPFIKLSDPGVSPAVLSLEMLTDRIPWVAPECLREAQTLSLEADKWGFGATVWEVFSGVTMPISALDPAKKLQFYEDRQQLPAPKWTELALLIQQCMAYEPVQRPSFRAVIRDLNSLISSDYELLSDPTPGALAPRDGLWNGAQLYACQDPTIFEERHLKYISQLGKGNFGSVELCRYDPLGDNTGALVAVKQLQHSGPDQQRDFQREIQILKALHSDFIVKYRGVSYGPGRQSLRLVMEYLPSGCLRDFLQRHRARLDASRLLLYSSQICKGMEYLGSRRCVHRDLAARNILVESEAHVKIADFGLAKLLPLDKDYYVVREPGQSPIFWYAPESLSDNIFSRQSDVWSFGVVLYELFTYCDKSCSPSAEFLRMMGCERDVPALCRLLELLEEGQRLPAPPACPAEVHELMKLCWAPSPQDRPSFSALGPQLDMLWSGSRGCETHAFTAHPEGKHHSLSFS

[4] = target: TYK2 (Homo sapiens (Human), UniProt P29597); assay: Kinase-Glo Max TYK2 kinase assay (BPS Bioscience kit); type: biochemical; conditions: purified enzyme, 0.01-10,000 nM
Sequence of TYK2 (P29597 whole entry): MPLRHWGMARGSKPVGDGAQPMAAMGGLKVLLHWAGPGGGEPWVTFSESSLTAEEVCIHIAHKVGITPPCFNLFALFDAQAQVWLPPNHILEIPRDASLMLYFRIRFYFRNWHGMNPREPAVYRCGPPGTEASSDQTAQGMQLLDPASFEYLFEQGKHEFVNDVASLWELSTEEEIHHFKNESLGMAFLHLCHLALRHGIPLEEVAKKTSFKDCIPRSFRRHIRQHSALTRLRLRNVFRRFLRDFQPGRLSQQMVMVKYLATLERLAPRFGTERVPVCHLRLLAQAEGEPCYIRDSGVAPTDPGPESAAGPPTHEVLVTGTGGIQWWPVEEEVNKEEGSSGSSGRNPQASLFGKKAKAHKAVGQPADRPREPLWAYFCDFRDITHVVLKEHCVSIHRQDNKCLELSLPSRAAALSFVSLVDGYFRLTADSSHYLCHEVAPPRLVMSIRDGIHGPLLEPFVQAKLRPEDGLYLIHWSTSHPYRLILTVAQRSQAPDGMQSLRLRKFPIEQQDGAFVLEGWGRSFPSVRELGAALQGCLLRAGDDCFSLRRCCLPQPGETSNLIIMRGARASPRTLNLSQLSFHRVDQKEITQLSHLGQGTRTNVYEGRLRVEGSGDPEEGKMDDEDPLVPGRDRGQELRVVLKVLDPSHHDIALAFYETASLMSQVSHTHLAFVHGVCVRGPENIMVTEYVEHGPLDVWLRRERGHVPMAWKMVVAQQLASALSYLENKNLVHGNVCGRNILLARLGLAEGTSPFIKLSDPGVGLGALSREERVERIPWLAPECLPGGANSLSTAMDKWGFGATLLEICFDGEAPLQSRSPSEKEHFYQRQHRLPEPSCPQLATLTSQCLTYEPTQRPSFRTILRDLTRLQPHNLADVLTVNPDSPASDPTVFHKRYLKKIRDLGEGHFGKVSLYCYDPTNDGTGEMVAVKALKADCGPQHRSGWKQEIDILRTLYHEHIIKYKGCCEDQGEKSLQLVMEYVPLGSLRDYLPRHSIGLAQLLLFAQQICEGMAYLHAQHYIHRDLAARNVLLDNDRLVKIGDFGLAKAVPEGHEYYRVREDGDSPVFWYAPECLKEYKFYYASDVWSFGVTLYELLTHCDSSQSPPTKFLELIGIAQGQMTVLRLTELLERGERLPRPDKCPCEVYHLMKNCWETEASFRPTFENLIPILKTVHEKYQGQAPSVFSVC
Description: as §1

[5] = system: HEL 92.1.7 cells; assay: Anti-proliferative assay in HEL cells (CellTiter 96 Aqueous); type: cell-based, Human; conditions: 3 days
Description: (§2) Cell Culture and anti-proliferative assay. […] Cells were incubated at 37° C. in a humidified atmosphere of 5% CO2. Cells were seeded into 96-well culture plates at the density of approximately 8000 cells per well and treated with various concentrations of compounds for 3 days in final volumes of 200 μL. Upon end point, cells were treated using CellTiter 96 Aqueous Assay Reagents (Promega Corporation, Madison, USA) according to the provider's instruction. Briefly, MITS and PMS solution were thawed and mixed (20:1, v/v) before use and pipet appropriate amount of the mixed solution into each well of the 96 well assay plates. The plates were incubated for 1-4 hours at 37° C. in a humidified atmosphere of 5% CO2. The absorbance at 490 nm was recorded using CYTATION 5 imaging reader (BioTek, VT, USA). IC50 values were calculated using percentage of growth versus untreated control.

[6] = system: SET-2 cells; assay: Anti-proliferative assay in SET-2 cells (CellTiter 96 Aqueous); type: cell-based, Human; conditions: 3 days
Description: as §2

[7] = Pharmacokinetics in mice after oral MMT3-72 (LC-MS/MS of plasma, GI tissues, GI content); type: in vivo, C57BL/6 female mice
Description: LC-MS analysis of MMT3-72and MMT3-72-M2 in biological samples: MMT3-72 and MMT3-72-M2 concentrations in plasma (ng/mil) and tissues (ng/g) were determined by the LC-MS/MS method that was developed and validated for this study. The HPLC method was conducted on a Shimadzu LC-20AD HPLC system (Kyoto, Japan), and chromatographic separation was achieved using a Waters XBridage reverse phase C18 column (5 cm×2.1 mm I.D., packed with 3.5 μm). The flow rate of gradient elution was 0.4 ml/min with mobile phase A (0.1% formic acid in purified deionized water) and mobile phase B (0.1% formic acid in acetonitrile). An AB Sciex QTrap 4500 mass spectrometer (AB Sciex, Framingham, USA) in the positive-ion multiple reaction monitoring (MRM) mode was used for detection. Protonated molecular ions and the respective ion products were monitored at the transitions of m/z 811.3>737.4 for MMT3-72 and 472.3>416.0 for the MMT3-72-M2. Data was processed with software Analyst (version 1.6).
Pharmacokinetics in mice. Briefly, C57BL/6 female mice were orally dosed with 10 mg/kg MMT3-72. At 0.5, 2, 4, 12, 24 h, mice were sacrificed, and blood samples were collected by drawing directly from the heart Intestinal tissue samples were collected and homogenized in PBS to 10% homogenate. The contents of small and large intestine were collected and homogenized in PBS. Afterwards, concentrations of MMT3-72, MMT3-72-M2,5-ASA in the plasma, intestinal tissues, and intestinal content were determined by liquid chromatography-tandem mass spectrometry (LC-MS/MS) analysis using method described above.

[8] = In-vivo metabolite identification in mouse plasma, colon and feces; conditions: 6 h after oral 10 mg/kg MMT3-72
Description: Activation of MMT73-72 and Metabolite identification: In-vivo metabolite identification was conducted using mouse plasma, colon and feces samples that collected at 6 h after oral administration of MMT3-72 (10 mg/kg), Liquid chromatography tandem mass spectrometry was employed to separate and identify the possible metabolites. The LC-MS/MS method consisted of a Shimadzu LC-20AD HPLC system (Kyoto, Japan). Chromatographic separation of MMT3-72 and its metabolites was achieved using a Waters XBridage reverse phase C18 column (15 cm×2.1 mm I.D., packed with […]). A high resolution AB Sciex X500R QTOF mass spectrometer (AB Sciex, Farmingham, USA) in the positive-ion Information Dependent Acquisition (IDA) mode was used for confirmation of accurate molecular weight. The mass range was recorded from m/z 100 to 1000 Da. The collision energy was set to 50 V for TOF MSMS. Data was collected with software SCIEX OS, and then processed with software Metabolite Pilot 2.0 (AB Sciex, Farmingham, USA).

[9] = system: DSS-induced colitis; assay: DSS-induced colitis in mice; type: in vivo, C57BL/6 female mice; conditions: oral; for improvement of DAI score or disease severity (in words): 1 mg/kg; for mice that developed moderate colitis / mice that developed severe colitis / mice that developed severe colitis with gross bleeding: day 5, n=10
Description: In vivo efficacy of MMT3-72 in treatment of DSS-induced colitis in mice: C57BL/6 female mice 6-8 weeks purchased from Charles River Laboratories and were randomly divided into different treatment groups. Acute colitis was induced by administering 3% DSS (MP Biomedicals, CA, USA) in distilled water continuously for 5 days and the control group received pure water (Snider, et al., Methods Mol Biol 2016, 1438, 245-254). […] Drugs were administered every other day orally by gavage in volume of 0.1 mL/10 g body weight. During the model establishment, body weight, stool consistency and gross blood in feces were monitored and recorded daily. After 5 days, mice were sacrificed and blood was collected. Serum was obtained by centrifugation and stored at −80° C. for further immune assay. Colon was excised and the length was measured.
To evaluate the efficacy of MMT3-72 in the treatment of UC in vivo, a colitis model was established in mice using dextran sodium sulfate (DSS). DSS in drinking water could trigger colitis in mice. The DSS-induced colitis model is widely used because of its relatively easy administration and high similarity with human UC. In this study, mice treated with 3% DSS water developed symptoms of colitis such as bloody stools and diarrhea on day 5. Disease activity index (DAI) was monitored for the severeness of disease in mice: Normal stool consistency with negative hemoccult: score 0; Soft stools with positive hemoccult: score 1; Very soft stools with traces of blood: score 2; Watery stools with visible rectal bleeding: score 3. […]. […].

[10] = system: DSS-induced colitis; assay: H&E staining of colon tissues in DSS-induced colitis model; type: in vivo, mice; conditions: 5, 10 mg/kg
Description: H&E Staining of Colon tissues: After dissecting and transecting the colon, a feeding needle and 5 ml syringe were used to intubate and flush the colon with ice-cold PBS until the stool was flushed out. Scissors were used to incise longitudinally from distal to proximal end of the colon and the colon tissue could then be expanded as a flat sheet. The edge of the distal colon was grasped using a pair of forceps and the colon tissue was rotated into a swiss roll. The roll was firmly grasped and transected using a 27 G ½ needle. […] The Swiss roll was then paraffin-embedded, sectioned, mounted, and stained with H&E to determine the extent of damage to the colon from the distal (inside end) to the proximal (outside end).

[11] = following a single oral dose; cited from earlier work

IC50 [1]: 2 nM
IC50 [2]: 16.3 nM
IC50 [3]: 0.701 µM
IC50 [4]: 55.2 nM
Cmax ([7]; female, C57BL/6, mouse, colon tissue and small intestinal tissues, oral 10 mg/kg MMT3-72, read-out: Cmax in colon tissue and small intestinal tissues): > 1500 ng/g
Cmax ([7]; female, C57BL/6, mouse, plasma, oral 10 mg/kg MMT3-72, read-out: Cmax in plasma): 8 ng/mL
concentration at 24 h ([7]; female, C57BL/6, mouse, small and large intestine tissues, oral 10 mg/kg MMT3-72, at 24 hrs, read-out: Cmin in small and large intestine tissues): 88.5 ng/mL
concentration in colon content relative to small intestine content ([7]; oral 10 mg/kg MMT3-72): 10 fold
time after which undetectable in plasma ([7]; oral 10 mg/kg MMT3-72): 4 h
Compound: Cc1cnc(Nc2ccc(OCCO)cc2)nc1Nc1cccc(S(=O)(=O)NC(C)(C)C)c1 [MMT3-72-M2, N-(tert-butyl)-3-((2-((4-(2-hydroxyethoxy)phenyl)amino)-5-methylpyrimidin-4-yl)amino)benzenesulfonamide]
IC50 ([5]; Homo sapiens, 72 h): 2590 nM
IC50 ([6]; Homo sapiens, 72 h): 332 nM
detection in plasma, colon tissue and feces [8]: only detected in the colon tissues and the feces with low level in the plasma

Compound: N#CC[C@H](C1CCCC1)n1cc(-c2ncnc3[nH]ccc23)cn1 [Ruxolitinib]
IC50 ([5]; Homo sapiens, 72 h): 114 nM
IC50 ([6]; Homo sapiens, 72 h): ~145 nM

Compound: COCCOCc1cc(Nc2ncc(C)c(Nc3cccc(S(=O)(=O)NC(C)(C)C)c3)n2)ccc1OCCN1CCCC1 [MMT3-83]
IC50 [5]: 2040 nM
IC50 [6]: 645 nM

Compound: Deucravacitinib
IC50 [5]: ~347000 nM
IC50 [6]: 7380 nM

Compound: CC[C@@H]1CN(C(=O)NCC(F)(F)F)C[C@@H]1c1cnc2cnc3[nH]ccc3n12 [Upadacitinib]
IC50 ([5]; Homo sapiens, 72 h): 1010 nM
IC50 ([6]; Homo sapiens, 72 h): 69.6 nM

IC50 [1]: 199 nM
IC50 [2]: 448 nM
IC50 [3]: 6.82 µM
IC50 [4]: 2980 nM
Cmax ([7]; female, C57BL/6, mouse, GI content (stomach, small intestine and colon content), oral 10 mg/kg MMT3-72, read-out: Cmax in GI content (stomach, small intestine and colon content)): > 50000 ng/g
detection in small intestine tissues, colon tissue or systemic circulation ([7]; oral 10 mg/kg MMT3-72, 0-24 hrs): not detected
Compound: Cc1cnc(Nc2ccc(OCCOc3ccc(/N=N/c4ccc(C(=O)NCCC(=O)O)cc4)cc3C(=O)O)cc2)nc1Nc1cccc(S(=O)(=O)NC(C)(C)C)c1 [MMT3-72, (E)-2-(2-(4-((4-((3-(N-(tert-butyl)sulfamoyl)phenyl)amino)-5-methylpyrimidin-2-yl)amino)phenoxy)ethoxy)-5-((4-((2-carboxyethyl)carbamoyl)phenyl)diazenyl)benzoic acid]
IC50 ([5]; Homo sapiens, 72 h): 5590 nM
IC50 ([6]; Homo sapiens, 72 h): 515 nM
detection in plasma, colon tissue and feces [8]: only detected in the feces with no detection in the plasma and the colon tissues
improvement of DAI score or disease severity (in words) [9]: did not improve DAI score or disease severity
improvement of DAI score versus DSS induced colitis ([9]; 5 mg/kg): 5 fold
mice that developed moderate colitis ([9]; 5 mg/kg): 10%
mice that developed severe colitis ([9]; 5 mg/kg): no mouse developed severe colitis
improvement of DAI score in DSS-induced colitis model ([9]; 10 mg/kg): 10 fold
recovery of colon length from DSS-induced colitis ([9]; 10 mg/kg): recovered the colon length
mice that developed moderate colitis ([9]; 10 mg/kg): no mice
mice that developed severe colitis with gross bleeding ([9]; 10 mg/kg): no mice
epithelial loss and immune cell infiltration in colon tissue (H&E) [10]: reduced epithelium disruption and infiltration of immune cells in colon tissues
epithelial loss and immune cell infiltration in colon tissue (H&E) ([10]; listed as MMT3972): reduced epithelial loss and decreased infiltration of immune cells

Compound: C[C@@H]1CCN(C(=O)CC#N)C[C@@H]1N(C)c1ncnc2[nH]ccc12 [Tofacitinib, reference compound]
improvement of DAI score or disease severity (in words) [9]: did not improve DAI score or disease severity
improvement of DAI score (in words) ([9]; 5 mg/kg): did not show any improvement of DAI score
mice that developed moderate colitis ([9]; 5 mg/kg): 80%
mice that developed severe colitis ([9]; 5 mg/kg): 40%
improvement of DAI score (in words) ([9]; 10 mg/kg): showed improvement of DAI score
recovery of colon length from DSS-induced colitis ([9]; 10 mg/kg): recovered the colon length
mice that developed moderate colitis ([9]; 10 mg/kg): 20%
mice that developed severe colitis with gross bleeding ([9]; 10 mg/kg): 10%

Compound: Cc1cnc(Nc2ccc(OCCN3CCCC3)cc2)nc1Nc1cccc(S(=O)(=O)NC(C)(C)C)c1 [Fedratinib]
IC50 ([5]; Homo sapiens, 72 h): 904 nM
IC50 ([6]; Homo sapiens, 72 h): 210 nM
portion excreted in feces as unchanged drug [11]: 23%
portion excreted to GI tract in feces [11]: 77%
